assay: Measurement of mRNA encapsulation in lipid nanoparticles (Quant-iT Ribogreen); type: physicochemical; settings: Leptin mRNA in LNP
Procedure: All equipment and disposable supplies are certified free of RNase activity by the manufacturer or rendered RNase free by use of the RNaseZap reagent (LifeTechnologies). mRNA is encapsulated at a cationic lipid amine to mRNA phosphate (N:P) molar ratio of 4:1. Lipids (cationic lipid, DSPC, cholesterol and lipidated PEG or stealth lipid) are dissolved in ethanol. The molar ratios are 40:10:38:2, respectively. The mixture is sonicated briefly, then gently agitated for 5 minutes and then maintained at 37° C. until use. mRNA is exchanged into citrate buffer pH 5.8-6.0 by use of Amicon Ultra-15 centrifugal concentrators, and the final concentration is adjusted to 0.5 mg/ml and held at 37° C. until use. An equal volume of lipids in ethanol, mRNA in citrate buffer, and citrate buffer alone are drawn into disposable syringes.
Tubing leading from syringes containing lipids and mRNA are attached to the T junction, and tubing leading from the syringe containing citrate buffer alone is paired with the tubing exiting the T-junction over a collection vessel containing a stir bar on an active stir plate. Syringes are placed in a syringe pump set to expel contents at a flow rate of 1 ml per minute. The pump is activated, and the collected mRNA in lipid nanoparticles is transferred to SnakeSkin dialysis tubing (10,000 MWCO, Thermo Scientific). Material is dialyzed against RNAse- and pyrogen-free 1× phosphate buffered saline overnight at 4° C.
Percent encapsulation of mRNA in lipid nanoparticles is determined using the Quant-iT Ribogreen RNA Assay kit (Life Technologies). The LNP-mRNA suspension is assayed in buffer (mRNA outside the particle), and buffer plus Triton X-100 detergent (total mRNA). The difference calculated is the mRNA inside the particle. Prepare a 1000 ng/mL stock from the RNA provided in the kit and use this to generate a standard curve (0 ng/ml, 15.63-1000 ng/ml) in TE and TE+0.75% Triton X-100. Prepare LNP-mRNA samples in TE buffer and TE buffer+0.75% Triton X-100 with appropriate dilution so that reading is in the range of standard curve (400-2,000 fold). In a 384-well plate (Costar non-treated #3573) add 0.04 ml of standard (in duplicate) or sample (in triplicate) per well. Dilute Ribogreen reagent 240-fold in TE buffer and add 0.06 ml per well. Mix contents of wells and measure fluorescence (excitation=480 nm, emission=520 nm). Subtract background values (no RNA) from standard and test sample values and determine the concentrations of RNA in the samples using the standard curves. Determine the percent encapsulation of the sample by dividing the difference in concentrations between sample+triton and sample in buffer alone by the sample+triton concentration.

| % encapsulation mRNA Leptin [%] | SMILES |
| --- | --- |
| 70.5 | CCCCC/C=C\C/C=C\CCCCCCCC(=O)OCC(COC(=O)CCCCCCC/C=C\C/C=C\CCCCC)COC(=O)CCN1CCN(C)CC1 [Example 2, (9Z,9′Z,12Z,12′Z)-2-(((3-(4-methylpiperazin-1-yl)propanoyl)oxy)methyl)propane-1,3-diyl bis(octadeca-9,12-dienoate)] |
| 32.5 | CCCCC/C=C\C/C=C\CCCCCCCC(=O)OCC(COC(=O)CCCCCCC/C=C\C/C=C\CCCCC)COC(=O)CCCN1CCCC1 [Example 3, (9Z,9′Z,12Z,12′Z)-2-(((4-(pyrrolidin-1-yl)butanoyl)oxy)methyl)propane-1,3-diyl bis(octadeca-9,12-dienoate)] |
| 1.9 | CCCCC/C=C\C/C=C\CCCCCCCC(=O)OCC(COC(=O)CCCCCCC/C=C\C/C=C\CCCCC)COC(=O)CCN1CCOCC1 [Example 10, (9Z,9′Z,12Z,12′Z)-2-(((3-morpholinopropanoyl)oxy)methyl)propane-1,3-diyl bis(octadeca-9,12-dienoate)] |
| 45.4 | CCCCC/C=C\C/C=C\CCCCCCCC(=O)OCC(COC(=O)CCCCCCC/C=C\C/C=C\CCCCC)COC(=O)CCCN(C)C [Example 11, (9Z,9′Z,12Z,12′Z)-2-(((4-(dimethylamino)butanoyl)oxy)methyl)propane-1,3-diyl bis(octadeca-9,12-dienoate)] |
| 82.0 | CCCCC/C=C\C/C=C\CCCCCCCC(=O)OCC(COC(=O)CCCCCC(CCCCCC)CCCCCC)COC(=O)OCCCN(CC)CC (centres unmarked) [Example 23, (9Z,12Z)-3-(((3-(diethylamino)propoxy)carbonyl)oxy)-2-(((7-hexyltridecanoyl)oxy)methyl)propyl octadeca-9,12-dienoate] |
| 80.8 | CCCCC/C=C\C/C=C\CCCCCCCC(=O)OCC(COC(=O)CCCCC(OCCCCCCCC)OCCCCCCCC)COC(=O)OCCCN(CC)CC (centres unmarked) [Example 27, (9Z,12Z)-3-((6,6-bis(octyloxy)hexanoyl)oxy)-2-((((3-(diethylamino)propoxy)carbonyl)oxy)methyl)propyl octadeca-9,12-dienoate] |
| 97.4 | CCCCC/C=C\C/C=C\CCCCCCCC(=O)OCC(COC(=O)CCC(OCCCCCCCC)OCCCCCCCC)COC(=O)C1CCN(C(C)C)CC1 (centres unmarked) [Example 33, 3-((4,4-bis(octyloxy)butanoyl)oxy)-2-(((9Z,12Z)-octadeca-9,12-dienoyloxy)methyl)propyl 1-isopropylpiperidine-4-carboxylate] |
| 14.3 | CCCCC/C=C\C/C=C\CCCCCCCC(=O)OCC(COC(=O)CCC(OCCCCCCCC)OCCCCCCCC)COC(=O)[C@@H]1CCCN1C (stereo partly drawn) [Example 37, (2S)-3-((4,4-bis(octyloxy)butanoyl)oxy)-2-(((9Z,12Z)-octadeca-9,12-dienoyloxy)methyl)propyl 1-methylpyrrolidine-2-carboxylate] |
| 9.6 | CCCCC/C=C\C/C=C\CCCCCCCC(=O)OCC(COC(=O)CCC(OCCCCCCCC)OCCCCCCCC)COC(=O)[C@H]1CCCN1C (stereo partly drawn) [Example 38, (2R)-3-((4,4-bis(octyloxy)butanoyl)oxy)-2-(((9Z,12Z)-octadeca-9,12-dienoyloxy)methyl)propyl 1-methylpyrrolidine-2-carboxylate] |
| 10.0 | CCCCC/C=C\C/C=C\CCCCCCCC(=O)OCC(COC(=O)CCC(OCCCCCCCC)OCCCCCCCC)COC(=O)C1CN(C)CCO1 (centres unmarked) [Example 39, 3-((4,4-bis(octyloxy)butanoyl)oxy)-2-(((9Z,12Z)-octadeca-9,12-dienoyloxy)methyl)propyl 4-methylmorpholine-2-carboxylate] |
| 97.5 | CCCCC/C=C\C/C=C\CCCCCCCC(=O)OCC(COC(=O)CCC(OCCCCCCCC)OCCCCCCCC)COC(=O)C1CCN(C)CC1 (centres unmarked) [Example 41, 3-((4,4-bis(octyloxy)butanoyl)oxy)-2-(((9Z,12Z)-octadeca-9,12-dienoyloxy)methyl)propyl 1-methylpiperidine-4-carboxylate] |
| 90.3 | CCCCC/C=C\C/C=C\CCCCCCCC(=O)OCC(COC(=O)CCC(OCCCCCCCC)OCCCCCCCC)COC(=O)C1CCCN(C)C1 (centres unmarked) [Example 42, 3-((4,4-bis(octyloxy)butanoyl)oxy)-2-(((9Z,12Z)-octadeca-9,12-dienoyloxy)methyl)propyl 1-methylpiperidine-3-carboxylate] |
| 22.4 | CCCCC/C=C\C/C=C\CCCCCCCC(=O)OCC(COC(=O)CCC(OCCCCCCCC)OCCCCCCCC)COC(=O)c1ccc(CN(CC)CC)cc1 (centres unmarked) [Example 44, 3-((4,4-bis(octyloxy)butanoyl)oxy)-2-(((9Z,12Z)-octadeca-9,12-dienoyloxy)methyl)propyl 4-((diethylamino)methyl)benzoate] |
| 84.4 | CCCCC/C=C\C/C=C\CCCCCCCC(=O)OCC(COC(=O)CCC(OCCCCCCCC)OCCCCCCCC)COC(=O)OCCCN1CCCC1 (centres unmarked) [Example 45, (9Z,12Z)-3-((4,4-bis(octyloxy)butanoyl)oxy)-2-((((3-(pyrrolidin-1-yl)propoxy)carbonyl)oxy)methyl)propyl octadeca-9,12-dienoate] |
| 63.5 | CCCCC/C=C\C/C=C\CCCCCCCC(=O)OCC(COC(=O)CCC(OCCCCCCCC)OCCCCCCCC)COC(=O)OCCCN1CCN(C)CC1 (centres unmarked) [Example 46, (9Z,12Z)-3-((4,4-bis(octyloxy)butanoyl)oxy)-2-((((3-(4-methylpiperazin-1-yl)propoxy)carbonyl)oxy)methyl)propyl octadeca-9,12-dienoate] |
| 90.4 | CCCCC/C=C\C/C=C\CCCCCCCC(=O)OCC(COC(=O)CCC(OCCCCCCCC)OCCCCCCCC)COC(=O)OC1CCN(C)C1 (centres unmarked) [Example 47, (9Z,12Z)-3-((4,4-bis(octyloxy)butanoyl)oxy)-2-(((((1-methylpyrrolidin-3-yl)oxy)carbonyl)oxy)methyl)propyl octadeca-9,12-dienoate] |
| 82.8 | CCCCC/C=C\C/C=C\CCCCCCCC(=O)OCC(COC(=O)CCC(OCCCCCCCC)OCCCCCCCC)COC(=O)OC1CN(C)C1 (centres unmarked) [Example 49, (9Z,12Z)-3-((4,4-bis(octyloxy)butanoyl)oxy)-2-(((((1-methylazetidin-3-yl)oxy)carbonyl)oxy)methyl)propyl octadeca-9,12-dienoate] |
| 83.9 | CCCCC/C=C\C/C=C\CCCCCCCC(=O)OCC(COC(=O)CCC(OCCCCCCCC)OCCCCCCCC)COC(=O)OC1CCN(CC)CC1 (centres unmarked) [Example 50, (9Z,12Z)-3-((4,4-bis(octyloxy)butanoyl)oxy)-2-(((((1-ethylpiperidin-4-yl)oxy)carbonyl)oxy)methyl)propyl octadeca-9,12-dienoate] |
| 82.3 | CCCCC/C=C\C/C=C\CCCCCCCC(=O)OCC(COC(=O)CCC(OCCCCCCCC)OCCCCCCCC)COC(=O)OCC1CCN(C)CC1 (centres unmarked) [Example 51, (9Z,12Z)-3-((4,4-bis(octyloxy)butanoyl)oxy)-2-(((((1-methylpiperidin-4-yl)methoxy)carbonyl)oxy)methyl)propyl octadeca-9,12-dienoate] |
| 32.2 | CCCCC/C=C\C/C=C\CCCCCCCC(=O)OCC(COC(=O)CCC(OCCCCCCCC)OCCCCCCCC)COC(=O)OC1CC(C)(C)N(C)C(C)(C)C1 (centres unmarked) [Example 52, (9Z,12Z)-3-((4,4-bis(octyloxy)butanoyl)oxy)-2-(((((1,2,2,6,6-pentamethylpiperidin-4-yl)oxy)carbonyl)oxy)methyl)propyl octadeca-9,12-dienoate] |
| 93.5 | CCCCC/C=C\C/C=C\CCCCCCCC(=O)OCC(COC(=O)CCC(OCCCCCCCC)OCCCCCCCC)COC(=O)NCCCN(C)C (centres unmarked) [Example 53, (9Z,12Z)-3-((4,4-bis(octyloxy)butanoyl)oxy)-2-((((3-(dimethylamino)propyl)carbamoyl)oxy)methyl)propyl octadeca-9,12-dienoate] |
| 83.3 | CCCCC/C=C\C/C=C\CCCCCCCC(=O)OCC(COC(=O)CCCCCCCCC(=O)OCCCCCCCC)COC(=O)C1(C)CCN(C)C1 (centres unmarked) [Example 56, 1-(3-((1,3-dimethylpyrrolidine-3-carbonyl)oxy)-2-(((9Z,12Z)-octadeca-9,12-dienoyloxy)methyl)propyl) 10-octyl decanedioate] |
| 95.2 | CCCCCCCCOC(CCC(=O)OCC(COC(=O)CCC(OCCCCCCCC)OCCCCCCCC)COC(=O)C1CCN(C)C1)OCCCCCCCC (centres unmarked) [Example 57, 2-(((1-methylpyrrolidine-3-carbonyl)oxy)methyl)propane-1,3-diyl bis(4,4-bis(octyloxy)butanoate)] |
